The results in this text go back to US20220117958A1, “COMPOSITIONS AND METHODS FOR INHIBITING ACSS2” (THE TRUSTEES OF THE UNIVERSITY OF PENNSYLVANIA, priority 2018, published 2022).

Where only a bound is given, the exact number is not on record here.

What all share (type): in vitro ADME
Data set [1] can be described thus: Microsomal stability assay (half-life), human. The conditions noted are these: Human microsomes, read-out: Microsomal stability T1/2. From the text: (§1) Table 20 provides results of in vitro and in vivo pharmacokinetics performed for each of the represented compounds.
Data set [2] can be described thus: Microsomal stability assay (half-life), mouse. The conditions noted are these: Mouse (CD1) microsomes, read-out: Microsomal stability T1/2.
Excerpt: as §1

The nature of data set [3]: Microsomal stability assay (half-life), rat. The note with it: Rat (SD) microsomes, read-out: Microsomal stability T1/2.
Excerpt: as §1

Data set [4] can be described thus: Protein binding via Rapid Equilibrium Dialysis - plasma. The note with it: Rat (SD) plasma, 2 μM.
Excerpt: as §1
In general terms: In equilibrium dialysis only unbound substance equilibrates across the membrane.

With `CCOc1ccc2ccc(=O)oc2c1` [7-Ethoxycoumarin, reference compound], the half-life at 2 μM is 7.97 min in data set [1], less than 15 min in data set [2] and 6.13 min in data set [3].

As to `CC(=O)CC(c1ccccc1)c1c(O)c2ccccc2oc1=O` (stereo not shown) [Warfarin, reference compound], in data set [4], the “Protein binding, plasma: % Protein free” value is listed as 0.5177 % Protein free.
